From patent US7241803B2, “Compounds for inhibition of HIV infection by blocking HIV entry” (New York Blood Center, priority 2002, dated 2007)

Columns and labels:
HIV-1IIIB [1] = assay: time-of-addition assay; assay type: cell-based; details: 2.5 μM added 8 hrs post-infection
Procedure: (§1) Assessment of anti-HIV-1 infectivity. […] Reactions were terminated by addition of 1N H2SO4.
MT-2 cells were incubated with HIV-1IIIB at 37° C. for 0, 1, 2, 3, 4, 6, and 8 hrs, respectively, before addition of the test compounds at 10 μg/ml. AZT (2.5 μM) was used as a control. After culture for another 2 hrs, the cells were washed to remove the free virus and compounds. The supernatants were collected on day 4 post-infection for measurement of p24 production.

[2] = system: HIV-1NL4-3 pseudotyped viruses expressing HIV-1SF162 (R5) Env with U87-T4-CCR5 cells; assay: virus-cell fusion, luciferase assay; assay type: cell-based; details: HIV-1SF162 (R5) Env pseudotyped virus
Procedure: Inhibition of virus-cell fusion. Inhibition of fusion of HIV-1NL4-3 pseudotyped viruses expressing envelope glycoprotein of the HIV-1HXB2 (X4) and HIV-1SF162 (R5) strains with U87-T4-CXCR4 and U87-T4-CCR5 cells, respectively, was measured as previously described (15). Briefly, 100 μl of U87-T4-CXCR4 and U87-T4-CCR5 cells, respectively, at 1×10^5 cells/ml were added to the wells of a 96-well tissue culture plate and cultured at 37° C. overnight. Fifty μl of a test compound at graded concentrations was mixed with 50 μl of the HIV-1NL4-3-luc viruses pseudotyped with the HIV-1HXB2 and HIV-1SF162 Env, prepared as described previously (15), at a final p24 concentration of 0.5 ng/ml in the presence of Polybrene (10 μg/ml). After incubation at 37° C. for 30 min, the mixtures were added to the cells and incubated at 37° C. overnight. The supernatants were removed and fresh culture medium was added. After incubation at 37° C. for 3 days, the cells were washed twice with PBS and lysed with the lysing reagent included in a luciferase assay kit (Promega, Corp., Madison, Wis.). The cell lysates were transferred to a 96-well flat-bottom luminometer plate (Costar, Corning Inc., Corning, N.Y.) and luciferase substrate (Promega) was added. The luciferase activity was measured immediately on a luminometer (Ultra 384, Tecan). The % inhibition and IC50 values were calculated as described above.

[3] = system: MT-2 & H9/HIV-1IIIB (clade B, X4); assay: cell-cell fusion, dye transfer assay; assay type: cell-based; details: H9/HIV-1IIIB with MT-2 cells
Procedure: Inhibition of cell-cell fusion. A dye transfer assay was used for detection of HIV-1 mediated cell fusion as previously described (21, 24, 34). H9/HIV-1IIIB cells were labeled with a fluorescent reagent, Calcein-AM (Molecular Probes, Inc., Eugene, Oreg.) and then incubated with MT-2 cells (ratio=1:5) in 96-well plates at 37° C. for 2 hrs in the presence or absence of compounds tested. The fused and unfused Cacein-labeled HIV-1-infected cells were counted under an inverted fluorescence microscope (Zeiss, Germany) with an eyepiece micrometer disc. The percentage of inhibition of cell fusion and the IC50 values were calculated as previously described (21).

HIV-1IIIB [4] = assay: inhibition of HIV-1IIIB replication (p24 production) in MT-2 cells; assay type: cell-based; details: concentration up to 80 μg/ml
Text: as §1

[5] = molecular target: gp41 six-helix bundle formed by N36 and C34 (Human immunodeficiency virus type 1 group M subtype B, UniProt P04578); details: for inhibitory activity on gp41 six-helix bundle formation (sandwich ELISA): graded concentrations, up to 80 μg/ml, compound preincubated with N36; for inhibition of six-helix bundle formation between N36 and C34 (screening ELISA): single dose 25 μg/ml
Procedure: ELISA for screening for compounds that inhibit the gp41 six-helix bundle formation. A sandwich ELISA as previously described (23) was used to screen for compounds that inhibit the gp41 six-helix bundle formation. Briefly, peptide N36 (2 μM) was pre-incubated with a test compound at the indicated concentrations at 37° C. for 30 min, followed by addition of C34 (2 μM). In the control experiments, N36 was pre-incubated with C34 at 37° C. for 30 min, followed by addition of the test compound. After incubation at 37° C. for 30 min, the mixture was added to wells of a 96-well polystyrene plate (Costar, Corning Inc., Corning, N.Y.) which were precoated with IgG (2 μg/ml) purified from rabbit antisera directed against the N36/C34 mixture. […] Absorbance at 450 nm was measured using an ELISA reader (Ultra 384, Tecan, Research Triangle Park, N.C.). The percent inhibition by the compounds was calculated as previously described (18) and the concentration for 50% inhibition (IC50) was calculated using the software designated Calcusyn (7), kindly provided by Dr. T. C. Chou (Sloan-Kettering Cancer Center, New York, N.Y.).

[6] = system: H9/HIV-1IIIB cells cocultured with MT-2 cells; assay: syncytium-formation assay for screening HIV-1 fusion inhibitors; assay type: cell-based; details: single dose 25 μg/ml
Text: Syncytium-formation assay for screening HIV-1 fusion inhibitors. […] HIV-1 induced syncytium formation was observed under an inverted microscope and scored as “−” (no syncytium was observed), “±” (about 50% syncytia were inhibited), and “+” (no syncytium formation was inhibited). The compounds scored with “−” and “±” were selected for further screening by ELISA for inhibitors against the gp41 six-helix bundle formation.

gp120-CD4 binding = molecular target: T1, gp120-CD4 binding (Human immunodeficiency virus type 1 group M subtype B, UniProt P03375); parameters: species or system HIV-1; details: 10 μg/ml
T1 construct: purchased Immunodiagnostics, Woburn, Mass; (gp120); Genentech Inc., South San Francisco, Calif; (sCD4)
Procedure: Inhibition of gp120 binding to CD4. Wells of polystyrene plates was coated with 100 μl of sheep anti-gp120 antibody D7324 (Cliniqa, Fallbrook, Calif.) at 2 μg/ml in carbonate buffer (pH 9.6) at 4° C. overnight and blocked with 1% dry fat-free milk in PBS at 37° C. for 1 h. One hundred microliters of recombinant gp120 molecule (Immunodiagnostics, Woburn, Mass.) at 0.5 μg/ml in PBS was added and incubated at 37° C. for 1 h, followed by three washes with PBS-T. Soluble CD4 (sCD4) at 0.25 μg/ml was added in the presence of a compound (25 μM) and incubated at 37° C. for 1 h. After three washes, rabbit anti-sCD4 IgG (0.25 μg/ml in PBS, 100 μl/well) was added and incubated at 37° C. for 1 h. Binding of rabbit anti-sCD4 IgG was determined by sequential addition of biotinylated goat-anti-rabbit IgG, SA-HRP, and TMB. After the reactions were terminated, absorbance at 450 nm was recorded in an ELISA reader (Tecan).
HIV-1 envelope glycoprotein gp120 was captured by the anti-gp120 antibody coated onto wells of polystyrene plates. […] After extensive washes, CD4 molecule bound to gp120 was quantitated by ELISA using anti-CD4 antibody.

CXCR4 = molecular target: T2, CXCR4 (Homo sapiens, UniProt P61073); assay: inhibition of anti-CXCR4 antibody 12G5 binding to CXCR4-expressing cells, cell-based ELISA; details: 25 μM
T2 construct: expressed in transfected cells; host or cells: U373-MAGI-CXCR4CEM cells
Procedure: Inhibition of anti-CXCR4 antibody binding to CXCR4-expressing cells. The inhibition of the binding of anti-CXCR4 antibody to CXCR4-expressing cells was determined using a cell-based ELISA as described previously (52). Briefly, U373-MAGI-CXCR4CEM cells (1×10^5/well) which express CXCR4 molecules were cultured in a 96-well plate at 37° C. overnight. The cells were fixed with 5% formaldehyde at room temperature for 15 min and washed with PBS-T. The cells were incubated with anti-CXCR4 mAb 12G5 at 37° C. for 1 h in the presence or absence of compounds tested. Isotype IgG2a was used as a control.

Sequence of gp41 six-helix bundle formed by N36 and C34 (P04578 546-581): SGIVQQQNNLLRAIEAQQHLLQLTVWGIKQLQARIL
T2 sequence (P61073 whole entry): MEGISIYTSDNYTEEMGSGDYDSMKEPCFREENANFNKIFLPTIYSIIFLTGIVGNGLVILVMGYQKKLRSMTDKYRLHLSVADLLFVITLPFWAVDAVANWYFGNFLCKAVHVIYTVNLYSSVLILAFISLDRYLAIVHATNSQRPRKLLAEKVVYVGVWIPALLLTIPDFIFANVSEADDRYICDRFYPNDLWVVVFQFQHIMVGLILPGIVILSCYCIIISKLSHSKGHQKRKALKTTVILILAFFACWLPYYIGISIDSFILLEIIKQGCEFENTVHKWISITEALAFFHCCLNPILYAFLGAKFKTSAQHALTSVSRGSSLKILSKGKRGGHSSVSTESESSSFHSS

## Cc1cn([C@H]2C[C@H](N=[N+]=[N-])[C@@H](CO)O2)c(=O)[nH]c1=O [AZT, reference compound]
HIV-1IIIB [1]
  inhibition of HIV-1 replication, time of addition: still effective

## Cc1ccc(C)n1-c1cccc(O)c1 [NB-177, reference compound]
[2]
  inhibitory activity on virus-cell fusion: no inhibitory activity
[3]
  inhibitory activity on cell-cell fusion: no inhibitory activity
HIV-1IIIB [4]
  inhibitory activity on HIV-1IIIB replication: no inhibitory activity
[5]
  inhibitory activity on gp41 six-helix bundle formation (sandwich ELISA): no inhibitory activity
  inhibition of six-helix bundle formation between N36 and C34 (screening ELISA): no inhibitory activity
[6]
  inhibition of HIV-1 mediated syncytium formation: no inhibitory activity

## Clc1ccc(-n2cccc2)cc1 [NB-178, reference compound]
[2]
  inhibitory activity on virus-cell fusion: no inhibitory activity
[3]
  inhibitory activity on cell-cell fusion: no inhibitory activity
HIV-1IIIB [4]
  inhibitory activity on HIV-1IIIB replication: no inhibitory activity
[5]
  inhibitory activity on gp41 six-helix bundle formation (sandwich ELISA): no inhibitory activity
  inhibition of six-helix bundle formation between N36 and C34 (screening ELISA): no inhibitory activity
[6]
  inhibition of HIV-1 mediated syncytium formation: no inhibitory activity

## CN1C(=O)[C@@H](c2cc(Cl)c(O)c(Cl)c2)NC(=O)[C@@H]2NC(=O)[C@@H](c3cc(Cl)c(O)c(Cl)c3)NC(=O)[C@H](NC(=O)C(=O)c3cc(Cl)c(O)c(Cl)c3)Cc3c[nH]c4c(cccc34)-c3cc2cc(c3O)Oc2ccc(cc2)C[C@H]1C(=O)N[C@@H](C(=O)O)c1ccc(O)cc1 [chloropeptin, reference compound]
gp120-CD4 binding
  inhibition of gp120-CD4 binding: markedly inhibited

## [Tyr-5,12, Lys-7]polyphemusin II [Example T22, reference compound]
CXCR4
  inhibition of 12G5 binding to U373-MAGI-CXCR4CEM cells: significantly inhibited
